Assay results published in US20260158017A1, “KIF18A INHIBITOR” (WIGEN BIOMEDICINE TECHNOLOGY (SHANGHAI) CO., LTD., priority 2021, published 2026).

Biological target: T1, Recombinant human KIF18A (1-467His-tagged) protein (Homo sapiens, UniProt Q8NI77)
T1 construct: Recombinant human KIF18A (1-467His-tagged) protein; His; made in house
Test: KIF18A enzyme assay (microtubule-stimulated ATPase activity, ADP-Glo)
Type: biochemical
Conditions: 30 nM KIF18A, 75 μM ATP, 30 μg/mL pig microtubules; read-out: Inhibitory activity against KIF18A IC50
In short: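 Buffer 15 mM Tris pH 7.5, 10 mM MgCl2, 0.01% Pluronic F-68, 1 μM paclitaxel, 30 μg/mL pig microtubules; reactions at room temperature. IC50 from inhibition relative to DMSO.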

T1 sequence (Q8NI77 1-467): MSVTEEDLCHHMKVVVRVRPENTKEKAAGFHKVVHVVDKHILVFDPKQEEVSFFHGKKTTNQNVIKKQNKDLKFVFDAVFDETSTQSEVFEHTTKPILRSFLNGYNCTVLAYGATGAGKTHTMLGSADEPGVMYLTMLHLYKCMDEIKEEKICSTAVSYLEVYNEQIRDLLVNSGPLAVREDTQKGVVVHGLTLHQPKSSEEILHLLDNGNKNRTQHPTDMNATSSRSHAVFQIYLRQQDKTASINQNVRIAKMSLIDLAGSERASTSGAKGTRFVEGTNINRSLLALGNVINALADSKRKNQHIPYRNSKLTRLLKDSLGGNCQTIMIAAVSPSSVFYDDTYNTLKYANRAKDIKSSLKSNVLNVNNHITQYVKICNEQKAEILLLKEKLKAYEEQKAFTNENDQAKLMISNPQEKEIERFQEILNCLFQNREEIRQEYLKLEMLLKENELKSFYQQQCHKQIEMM
T1 sequence (P02550 whole entry partner): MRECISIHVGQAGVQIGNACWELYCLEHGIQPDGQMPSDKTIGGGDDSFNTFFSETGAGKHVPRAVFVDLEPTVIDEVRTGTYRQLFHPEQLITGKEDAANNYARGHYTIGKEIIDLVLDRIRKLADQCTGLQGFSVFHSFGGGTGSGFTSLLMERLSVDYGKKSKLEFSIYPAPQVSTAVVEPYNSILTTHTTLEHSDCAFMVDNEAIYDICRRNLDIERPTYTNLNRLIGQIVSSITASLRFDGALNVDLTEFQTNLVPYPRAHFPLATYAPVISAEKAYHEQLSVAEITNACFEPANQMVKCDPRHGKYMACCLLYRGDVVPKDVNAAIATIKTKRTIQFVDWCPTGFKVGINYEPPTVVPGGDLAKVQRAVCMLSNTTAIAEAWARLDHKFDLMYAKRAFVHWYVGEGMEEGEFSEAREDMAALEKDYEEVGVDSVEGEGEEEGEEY
T1 sequence (P02554 whole entry partner): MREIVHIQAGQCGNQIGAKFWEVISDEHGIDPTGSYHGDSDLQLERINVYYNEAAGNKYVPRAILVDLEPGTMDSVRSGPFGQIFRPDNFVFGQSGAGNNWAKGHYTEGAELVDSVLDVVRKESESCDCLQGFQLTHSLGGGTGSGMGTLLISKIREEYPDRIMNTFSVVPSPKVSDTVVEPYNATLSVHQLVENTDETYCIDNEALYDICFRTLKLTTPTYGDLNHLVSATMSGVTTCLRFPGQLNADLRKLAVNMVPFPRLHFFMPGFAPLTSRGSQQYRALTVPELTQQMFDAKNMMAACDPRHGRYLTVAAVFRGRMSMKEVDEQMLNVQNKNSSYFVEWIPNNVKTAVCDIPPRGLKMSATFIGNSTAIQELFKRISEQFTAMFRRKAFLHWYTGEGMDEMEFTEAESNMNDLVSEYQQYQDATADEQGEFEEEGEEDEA

IC50, ≤ 100 nM:
COc1ccc(C(=O)Nc2ccc(S(=O)(=O)N[C@H](C)CO)cc2N2CCC3(CC2)CC3)nc1N1CCC(F)(F)CC1 [Compound 350]
COc1ccc(C(=O)Nc2ccc(S(=O)(=O)N[C@@H](C)CO)cc2N2CCC3(CC2)CC3)nc1N1CCO[C@H](C)C1 [Compound 351]
COc1ccc(C(=O)Nc2ccc(S(=O)(=O)N[C@H](C)CO)cc2N2CCC3(CC2)CC3)nc1N1CCO[C@H](C)C1 [Compound 352]
COc1ccc(C(=O)Nc2cnc(NS(=O)(=O)CCO)cc2N2CCC3(CC2)CC3)nc1N1CCO[C@H](C)C1 [Compound 354]
COc1ccc(C(=O)Nc2cnc(NS(=O)(=O)CCO)cc2N2CCC3(CC2)CC3)nc1N1CCO[C@@H](C)C1 [Compound 355]
COc1ccc(C(=O)Nc2cnc(NS(=O)(=O)CCO)cc2N2CCC3(CC2)CC3)nc1N1CC(F)(F)C1 [Compound 356]
COc1ccc(C(=O)Nc2cnc(NS(=O)(=O)CCO)cc2N2CCC3(CC2)CC3)nc1OCCC(F)(F)F [Compound 357]
COc1ccc(C(=O)Nc2cnc(NS(=O)(=O)CCO)cc2N2CCC3(CC2)CC3)nc1N1CCC2(CC2)C1 [Compound 358]
COc1ccc(C(=O)Nc2cnc(NS(=O)(=O)CCO)cc2N2CCC3(CC2)CC3)nc1OC1CCC1 [Compound 359]
COc1ccc(C(=O)Nc2cnc(NS(=O)(=O)CCO)cc2N2CCC3(CC2)CC3)nc1N1CCC(C)(F)C1 (stereo not shown) [Compound 360]
COc1ccc(C(=O)Nc2cnc(NS(=O)(=O)CCO)cc2N2CCC3(CC2)CC3)nc1N1CCC(F)CC1 [Compound 361]
COc1ccc(C(=O)Nc2cnc(NS(=O)(=O)CCO)cc2N2CCC3(CC2)CC3)nc1N1CC2CC2C1 (stereo not shown) [Compound 362]
COc1ccc(C(=O)Nc2cnc(NS(=O)(=O)CCO)cc2N2CCC3(CC2)CC3)nc1NC(C)(C)CO [Compound 363]
COc1ccc(C(=O)Nc2cnc(NS(=O)(=O)CCO)cc2N2CCC3(CC2)CC3)nc1N1CCOCC1 [Compound 364]
COc1ccc(C(=O)Nc2cnc(NS(=O)(=O)[C@@H](C)CO)cc2N2CCC3(CC2)CC3)nc1N1CCC(F)(F)CC1 [Compound 365]
COc1ccc(C(=O)Nc2cnc(NS(=O)(=O)[C@H](C)CO)cc2N2CCC3(CC2)CC3)nc1N1CCC(F)(F)CC1 [Compound 366]
COc1ccc(C(=O)Nc2cnc(NS(=O)(=O)[C@@H](C)CO)cc2N2CCC3(CC2)CC3)nc1N1CCO[C@H](C)C1 [Compound 367]
COc1ccc(C(=O)Nc2cnc(NS(=O)(=O)[C@H](C)CO)cc2N2CCC3(CC2)CC3)nc1N1CCO[C@H](C)C1 [Compound 368]
COc1ccc(C(=O)Nc2cnc(S(=O)(=O)NCCO)cc2N2CCC3(CC2)CC3)nc1N1CCC(F)(F)CC1 [Compound 369]
COc1ccc(C(=O)Nc2cnc(S(=O)(=O)NCCO)cc2N2CCC3(CC2)CC3)nc1N1CCO[C@H](C)C1 [Compound 370]
COc1ccc(C(=O)Nc2cnc(S(=O)(=O)NCCO)cc2N2CCC3(CC2)CC3)nc1N1CCO[C@@H](C)C1 [Compound 371]
COc1ccc(C(=O)Nc2cnc(S(=O)(=O)NCCO)cc2N2CCC3(CC2)CC3)nc1N1CC(F)(F)C1 [Compound 372]
COc1ccc(C(=O)Nc2cnc(S(=O)(=O)NCCO)cc2N2CCC3(CC2)CC3)nc1OCCC(F)(F)F [Compound 373]
COc1ccc(C(=O)Nc2cnc(S(=O)(=O)NCCO)cc2N2CCC3(CC2)CC3)nc1N1CCC2(CC2)C1 [Compound 374]
COc1ccc(C(=O)Nc2cnc(S(=O)(=O)NCCO)cc2N2CCC3(CC2)CC3)nc1OC1CCC1 [Compound 375]
COc1ccc(C(=O)Nc2cnc(S(=O)(=O)NCCO)cc2N2CCC3(CC2)CC3)nc1N1CCC(C)(F)C1 (stereo not shown) [Compound 376]
COc1ccc(C(=O)Nc2cnc(S(=O)(=O)NCCO)cc2N2CCC3(CC2)CC3)nc1N1CCC(F)CC1 [Compound 377]
COc1ccc(C(=O)Nc2cnc(S(=O)(=O)NCCO)cc2N2CCC3(CC2)CC3)nc1N1CC2CC2C1 (stereo not shown) [Compound 378]
COc1ccc(C(=O)Nc2cnc(S(=O)(=O)NCCO)cc2N2CCC3(CC2)CC3)nc1NC(C)(C)CO [Compound 379]
COc1ccc(C(=O)Nc2cnc(S(=O)(=O)NCCO)cc2N2CCC3(CC2)CC3)nc1N1CCOCC1 [Compound 380]
COc1ccc(C(=O)Nc2cnc(S(=O)(=O)N[C@@H](C)CO)cc2N2CCC3(CC2)CC3)nc1N1CCC(F)(F)CC1 [Compound 381]
COc1ccc(C(=O)Nc2cnc(S(=O)(=O)N[C@H](C)CO)cc2N2CCC3(CC2)CC3)nc1N1CCC(F)(F)CC1 [Compound 382]
COc1ccc(C(=O)Nc2cnc(S(=O)(=O)N[C@@H](C)CO)cc2N2CCC3(CC2)CC3)nc1N1CCO[C@H](C)C1 [Compound 383]
COc1ccc(C(=O)Nc2cnc(NS(=O)(=O)[C@H](C)CO)cc2N2CCC3(CC2)CC3)nc1N1CCO[C@H](C)C1 [Compound 384]
C[C@@H]1CN(c2cc(NC(=O)c3ccc(NS(=O)(=O)CCO)cc3N3CCC4(CC3)CC4)ccc2OCF)CCO1 [Compound 386]
C[C@H]1CN(c2cc(NC(=O)c3ccc(NS(=O)(=O)CCO)cc3N3CCC4(CC3)CC4)ccc2OCF)CCO1 [Compound 387]
O=C(Nc1ccc(OCF)c(N2CC(F)(F)C2)c1)c1ccc(NS(=O)(=O)CCO)cc1N1CCC2(CC1)CC2 [Compound 388]
O=C(Nc1ccc(OCF)c(OCCC(F)(F)F)c1)c1ccc(NS(=O)(=O)CCO)cc1N1CCC2(CC1)CC2 [Compound 389]
O=C(Nc1ccc(OCF)c(N2CCC3(CC3)C2)c1)c1ccc(NS(=O)(=O)CCO)cc1N1CCC2(CC1)CC2 [Compound 390]
O=C(Nc1ccc(OCF)c(OC2CCC2)c1)c1ccc(NS(=O)(=O)CCO)cc1N1CCC2(CC1)CC2 [Compound 391]
CC1(F)CCN(c2cc(NC(=O)c3ccc(NS(=O)(=O)CCO)cc3N3CCC4(CC3)CC4)ccc2OCF)C1 (stereo not shown) [Compound 392]
O=C(Nc1ccc(OCF)c(N2CCC(F)CC2)c1)c1ccc(NS(=O)(=O)CCO)cc1N1CCC2(CC1)CC2 [Compound 393]
CC(C)(CO)Nc1cc(NC(=O)c2ccc(NS(=O)(=O)CCO)cc2N2CCC3(CC2)CC3)ccc1OCF [Compound 395]
O=C(Nc1ccc(OCF)c(N2CCOCC2)c1)c1ccc(NS(=O)(=O)CCO)cc1N1CCC2(CC1)CC2 [Compound 396]
C[C@@H](CO)S(=O)(=O)Nc1ccc(C(=O)Nc2ccc(OCF)c(N3CCC(F)(F)CC3)c2)c(N2CCC3(CC2)CC3)c1 [Compound 397]
C[C@H](CO)S(=O)(=O)Nc1ccc(C(=O)Nc2ccc(OCF)c(N3CCC(F)(F)CC3)c2)c(N2CCC3(CC2)CC3)c1 [Compound 398]
C[C@@H]1CN(c2cc(NC(=O)c3ccc(NS(=O)(=O)[C@@H](C)CO)cc3N3CCC4(CC3)CC4)ccc2OCF)CCO1 [Compound 399]
O=C(Nc1ccc(OCF)c(N2CCC(F)(F)CC2)c1)c1ccc(S(=O)(=O)NCCO)cc1N1CCC2(CC1)CC2 [Compound 401]
C[C@@H]1CN(c2cc(NC(=O)c3cnc(S(=O)(=O)NCCO)cc3N3CCC4(CC3)CC4)ccc2OCF)CCO1 [Compound 402]
C[C@H]1CN(c2cc(C(=O)Nc3ccc(S(=O)(=O)NCCO)cc3N3CCC4(CC3)CC4)ccc2OCF)CCO1 [Compound 403]
O=C(Nc1ccc(OCF)c(N2CC(F)(F)C2)c1)c1ccc(S(=O)(=O)NCCO)cc1N1CCC2(CC1)CC2 [Compound 404]
O=C(Nc1ccc(OCF)c(OCCC(F)(F)F)c1)c1ccc(S(=O)(=O)NCCO)cc1N1CCC2(CC1)CC2 [Compound 405]
O=C(Nc1ccc(OCF)c(N2CCC3(CC3)C2)c1)c1ccc(S(=O)(=O)NCCO)cc1N1CCC2(CC1)CC2 [Compound 406]
O=C(Nc1ccc(OCF)c(OC2CCC2)c1)c1ccc(S(=O)(=O)NCCO)cc1N1CCC2(CC1)CC2 [Compound 407]
CC1(F)CCN(c2cc(NC(=O)c3ccc(S(=O)(=O)NCCO)cc3N3CCC4(CC3)CC4)ccc2OCF)C1 (stereo not shown) [Compound 408]
O=C(Nc1ccc(OCF)c(N2CCC(F)CC2)c1)c1ccc(S(=O)(=O)NCCO)cc1N1CCC2(CC1)CC2 [Compound 409]
O=C(Nc1ccc(OCF)c(N2CC3CC3C2)c1)c1ccc(S(=O)(=O)NCCO)cc1N1CCC2(CC1)CC2 (stereo not shown) [Compound 410]
CC(C)(CO)Nc1cc(NC(=O)c2ccc(S(=O)(=O)NCCO)cc2N2CCC3(CC2)CC3)ccc1OCF [Compound 411]
O=C(Nc1ccc(OCF)c(N2CCOCC2)c1)c1ccc(S(=O)(=O)NCCO)cc1N1CCC2(CC1)CC2 [Compound 412]
C[C@@H](CO)S(=O)(=O)Nc1ccc(C(=O)Nc2ccc(OCF)c(N3CCC(F)(F)CC3)c2)c(N2CCC3(CC2)CC3)c1 [Compound 413]
C[C@H](CO)NS(=O)(=O)c1ccc(C(=O)Nc2ccc(OCF)c(N3CCC(F)(F)CC3)c2)c(N2CCC3(CC2)CC3)c1 [Compound 414]
C[C@@H]1CN(c2cc(NC(=O)c3ccc(S(=O)(=O)N[C@@H](C)CO)cc3N3CCC4(CC3)CC4)ccc2OCF)CCO1 [Compound 415]
C[C@H](CO)NS(=O)(=O)c1ccc(C(=O)Nc2ccc(OCF)c(N3CCO[C@H](C)C3)c2)c(N2CCC3(CC2)CC3)c1 [Compound 416]
O=C(Nc1ccc(OCF)c(N2CCC(F)(F)CC2)n1)c1ccc(NS(=O)(=O)CCO)cc1N1CCC2(CC1)CC2 [Compound 417]
